Source: US9884828B2, “Substituted cinnolines as inhibitors of LRRK2 kinase activity” (Imago Pharmaceuticals, Inc., priority 2011, dated 2018)
pIC50: −log10 of the molar value. Like-named read-outs stand apart in the source and are kept apart here.

Target: recombinant GST-LRRK2 (wild-type) (Homo sapiens (Human), UniProt Q5S007)
Experiment: LRRK2 TR-FRET peptide assay (in vitro kinase activity), wild-type
Format: biochemical
Protocol: Compounds as described herein (compounds of Formula I, e.g., compounds of the above Examples) are tested for their in vitro kinase activities using various LRRK2 (including LRRK2 G2019S mutant) assays. […] Serially diluted compounds (1% DMSO as co-solvent) were pre-incubated with recombinant GST-LRRK2 (wild-type, or G2019S mutant, Invitrogen) for 15 minutes at room temperature in 384-well Corning black plates. […] The inhibition of each well was calculated using the control and background readings for that plate. IC50 values were determined from dose-response curves using eight concentrations from the serial dilution of the test compounds.

[1] = 100 μM ATP, 100 nM biotin-LRRKtide substrate, 10 nM kinase, 60 minutes at room temperature

Chain of recombinant GST-LRRK2 (wild-type) (Q5S007 whole entry): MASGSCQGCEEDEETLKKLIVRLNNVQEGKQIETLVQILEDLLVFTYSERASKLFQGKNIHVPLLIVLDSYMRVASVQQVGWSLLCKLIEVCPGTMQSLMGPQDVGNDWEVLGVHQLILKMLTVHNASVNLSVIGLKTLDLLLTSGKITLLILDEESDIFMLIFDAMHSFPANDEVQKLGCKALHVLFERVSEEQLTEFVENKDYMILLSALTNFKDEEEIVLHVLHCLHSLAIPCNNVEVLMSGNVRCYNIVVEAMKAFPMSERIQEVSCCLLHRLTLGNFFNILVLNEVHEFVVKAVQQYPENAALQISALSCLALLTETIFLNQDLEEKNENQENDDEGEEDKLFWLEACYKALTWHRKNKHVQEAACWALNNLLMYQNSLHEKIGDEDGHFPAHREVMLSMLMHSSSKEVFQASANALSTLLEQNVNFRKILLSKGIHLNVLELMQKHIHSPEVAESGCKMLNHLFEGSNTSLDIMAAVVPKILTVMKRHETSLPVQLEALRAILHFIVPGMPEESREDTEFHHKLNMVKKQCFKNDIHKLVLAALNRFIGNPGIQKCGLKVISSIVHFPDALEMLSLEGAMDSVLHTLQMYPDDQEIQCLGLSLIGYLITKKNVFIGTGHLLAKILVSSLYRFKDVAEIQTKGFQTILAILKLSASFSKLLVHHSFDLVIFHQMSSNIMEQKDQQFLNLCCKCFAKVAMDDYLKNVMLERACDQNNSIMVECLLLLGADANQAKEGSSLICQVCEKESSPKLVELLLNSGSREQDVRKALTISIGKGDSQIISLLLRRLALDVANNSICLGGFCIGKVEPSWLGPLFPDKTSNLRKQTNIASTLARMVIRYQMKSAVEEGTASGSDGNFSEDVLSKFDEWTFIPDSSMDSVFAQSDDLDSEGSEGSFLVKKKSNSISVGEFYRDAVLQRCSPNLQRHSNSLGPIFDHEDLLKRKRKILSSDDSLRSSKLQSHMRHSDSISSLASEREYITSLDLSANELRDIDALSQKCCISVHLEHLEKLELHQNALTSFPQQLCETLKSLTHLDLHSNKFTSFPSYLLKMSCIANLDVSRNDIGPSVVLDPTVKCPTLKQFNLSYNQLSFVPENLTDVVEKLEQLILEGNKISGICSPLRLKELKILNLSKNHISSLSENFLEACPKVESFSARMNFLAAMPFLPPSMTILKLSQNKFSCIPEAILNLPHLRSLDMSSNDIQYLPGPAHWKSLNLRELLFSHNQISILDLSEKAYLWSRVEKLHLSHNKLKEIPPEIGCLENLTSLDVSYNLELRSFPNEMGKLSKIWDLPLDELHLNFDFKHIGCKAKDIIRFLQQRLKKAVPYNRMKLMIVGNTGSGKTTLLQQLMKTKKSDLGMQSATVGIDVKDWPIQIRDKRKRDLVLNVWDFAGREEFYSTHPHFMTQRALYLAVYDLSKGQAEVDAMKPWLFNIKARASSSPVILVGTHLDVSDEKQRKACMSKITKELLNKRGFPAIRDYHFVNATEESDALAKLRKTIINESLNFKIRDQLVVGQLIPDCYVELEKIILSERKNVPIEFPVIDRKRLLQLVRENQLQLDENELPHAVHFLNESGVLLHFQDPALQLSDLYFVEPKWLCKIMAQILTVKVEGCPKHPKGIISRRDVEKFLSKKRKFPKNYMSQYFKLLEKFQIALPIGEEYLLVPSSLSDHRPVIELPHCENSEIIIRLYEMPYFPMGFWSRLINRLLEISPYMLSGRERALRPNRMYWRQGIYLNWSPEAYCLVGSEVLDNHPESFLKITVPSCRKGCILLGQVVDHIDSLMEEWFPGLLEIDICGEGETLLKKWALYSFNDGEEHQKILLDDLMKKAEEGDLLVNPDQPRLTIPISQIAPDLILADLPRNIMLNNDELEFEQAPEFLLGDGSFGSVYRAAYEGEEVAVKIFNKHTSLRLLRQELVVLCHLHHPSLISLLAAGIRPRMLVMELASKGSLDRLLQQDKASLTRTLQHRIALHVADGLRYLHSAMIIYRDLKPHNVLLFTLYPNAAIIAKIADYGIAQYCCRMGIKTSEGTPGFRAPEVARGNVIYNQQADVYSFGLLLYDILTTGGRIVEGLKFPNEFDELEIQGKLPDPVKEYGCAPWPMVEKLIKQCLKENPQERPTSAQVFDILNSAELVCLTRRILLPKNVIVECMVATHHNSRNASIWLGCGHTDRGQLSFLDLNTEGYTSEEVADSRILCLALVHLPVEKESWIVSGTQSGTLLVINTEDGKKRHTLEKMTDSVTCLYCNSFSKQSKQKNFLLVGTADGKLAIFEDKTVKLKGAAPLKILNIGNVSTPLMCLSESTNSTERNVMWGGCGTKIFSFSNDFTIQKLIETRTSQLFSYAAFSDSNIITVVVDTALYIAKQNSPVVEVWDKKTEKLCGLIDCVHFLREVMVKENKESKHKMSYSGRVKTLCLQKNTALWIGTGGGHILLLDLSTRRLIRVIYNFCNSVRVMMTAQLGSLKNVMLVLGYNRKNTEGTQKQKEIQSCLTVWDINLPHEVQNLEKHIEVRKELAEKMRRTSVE

Row | Structure (SMILES) | pIC50 [1] | pIC50
1 | COc1ccc(S(C)(=O)=O)cc1-c1ccc2c(N[C@H](C)C3CC3)c(C(N)=O)nnc2c1 [Compound 2-115, (R)-4-(1-cyclopropylethylamino)-7-(2-methoxy-5-(methylsulfonyl)phenyl)cinnoline-3-carboxamide] | 7.30 | –
2 | C[C@@H](Nc1c(C(N)=O)nnc2cc(-c3ccccc3S(C)(=O)=O)ccc12)C1CC1 [Compound 2-123, (R)-4-(1-cyclopropylethylamino)-7-(2-(methylsulfonyl)phenyl)cinnoline-3-carboxamide] | 6.37 | –
3 | CC(C)Nc1c(C(N)=O)nnc2ccc(-c3ccccc3)cc12 [Compound 2-124, 4-(isopropylamino)-6-phenylcinnoline-3-carboxamide] | 6.20 | –
4 | CC(C)Nc1c(C(N)=O)nnc2cc(-c3cncnc3)ccc12 [Compound 2-33, 4-(isopropylamino)-7-(pyrimidin-5-yl)cinnoline-3-carboxamide] | 6.68 | –
5 | C[C@@H](Nc1c(C(N)=O)nnc2cc(-c3ccncc3)ccc12)C1CC1 [Compound 2-100, (R)-4-(1-cyclopropylethylamino)-7-(pyridin-4-yl)cinnoline-3-carboxamide] | – | > 8.22
6 | NC(=O)c1nnc2cc(-c3ccncc3)ccc2c1NCCO [Compound 2-137, 4-(2-hydroxyethylamino)-7-(pyridin-4-yl)cinnoline-3-carboxamide] | 6.82 | –
7 | CC(C)Nc1c(C(N)=O)nnc2cc(-c3cccc(F)c3)ccc12 [Compound 2-45, 7-(3-fluorophenyl)-4-(isopropylamino)cinnoline-3-carboxamide] | 7.08 | –
8 | C[C@@H](Nc1c(C(N)=O)nnc2cc(-c3cccc(C(=O)N(C)C)c3)ccc12)C1CC1 [Compound 2-102, (R)-4-(1-cyclopropylethylamino)-7-(3-(dimethylcarbamoyl)phenyl)cinnoline-3-carboxamide] | > 8.22 | –
9 | CC(C)Nc1c(C(N)=O)nnc2ccc(-c3ccncc3)cc12 [Compound 2-126, 4-(isopropylamino)-6-(pyridin-4-yl)cinnoline-3-carboxamide] | 7.52 | –
10 | C[C@@H](Nc1c(C(N)=O)nnc2cc(-c3ccc(=O)n(C)c3)ccc12)C1CC1 [Compound 2-112, (R)-4-(1-cyclopropylethylamino)-7-(1-methyl-6-oxo-1,6-dihydropyridin-3-yl)cinnoline-3-carboxamide] | > 8.22 | –
11 | COc1cc(C(=O)N(C)C)ccc1-c1ccc2c(N[C@H](C)C3CC3)c(C(N)=O)nnc2c1 [Compound 2-118, (R)-4-(1-cyclopropylethylamino)-7-(4-(dimethylcarbamoyl)-2-methoxyphenyl)cinnoline-3-carboxamide] | 8.00 | –
12 | CS(=O)(=O)c1ccc(-c2ccc3c(N)c(C(N)=O)nnc3c2)cc1 [Compound 1-5, 4-amino-7-(4-(methylsulfonyl)phenyl)cinnoline-3-carboxamide] | 6.85 | –
13 | C[C@@H](Nc1c(C(N)=O)nnc2cc(-c3cnn(C)c3)ccc12)C1CC1 [Compound 2-101, (R)-4-(1-cyclopropylethylamino)-7-(1-methyl-1H-pyrazol-4-yl)cinnoline-3-carboxamide] | 9.00 | –
14 | COc1cc(Br)ccc1-c1ccc(OC)c(-c2ccc3c(N[C@H](C)C4CC4)c(C(N)=O)nnc3c2)c1 [Compound 2-203, (R)-7-(4′-bromo-2′,4-dimethoxybiphenyl-3-yl)-4-(1-cyclopropylethylamino)cinnoline-3-carboxamide] | 5.06 | –
15 | CC(C)Nc1c(C(N)=O)nnc2cc(-c3ccc(S(C)(=O)=O)cc3)ccc12 [Compound 2-17, 4-(isopropylamino)-7-(4-(methylsulfonyl)phenyl)cinnoline-3-carboxamide] | 7.82 | –
16 | NC(=O)c1nnc2cc(-c3ccc(N4CCOCC4)cc3)ccc2c1N [Compound 1-9, 4-amino-7-(4-morpholinophenyl)cinnoline-3-carboxamide] | 4.53 | –
17 | CC(C)(C)Nc1c(C(N)=O)nnc2cc(-c3ccc(S(C)(=O)=O)cc3)ccc12 [Compound 2-91, 4-(tert-butylamino)-7-(4-(methylsulfonyl)phenyl)cinnoline-3-carboxamide] | 7.35 | –
18 | C=Cc1ccc2c(NC(C)C)c(C(N)=O)nnc2c1 [Compound 2-95, 4-(isopropylamino)-7-vinylcinnoline-3-carboxamide] | 6.92 | –
19 | C[C@@H](Nc1c(C(N)=O)nnc2cc(-c3ccccc3)ccc12)C1CC1 [Compound 2-110, (R)-4-(1-cyclopropylethylamino)-7-phenylcinnoline-3-carboxamide] | 8.00 | –
20 | CC(C)Nc1c(C(N)=O)nnc2ccc(-c3cncs3)cc12 [Compound 2-131, 4-(isopropylamino)-6-(thiazol-5-yl)cinnoline-3-carboxamide] | 6.96 | –
21 | COc1ccccc1-c1ccc2c(NC(C)C)c(C(N)=O)nnc2c1 [Compound 2-96, 4-(isopropylamino)-7-(2-methoxyphenyl)cinnoline-3-carboxamide] | 6.46 | –
22 | C[C@@H](Nc1c(C(N)=O)nnc2cc(-c3ccc(C(=O)N(C)C)cc3)ccc12)C1CC1 [Compound 2-114, (R)-4-(1-cyclopropylethylamino)-7-(4-(dimethylcarbamoyl)phenyl)cinnoline-3-carboxamide] | 9.30 | –
23 | CC(C)Nc1c(C(N)=O)nnc2ccc(-c3ccc(S(C)(=O)=O)cc3)cc12 [Compound 2-125, 4-(isopropylamino)-6-(4-(methylsulfonyl)phenyl)cinnoline-3-carboxamide] | 5.54 | –
24 | CC(C)Nc1c(C(N)=O)nnc2cc(-c3cnn(C)c3)ccc12 [Compound 2-35, 4-(isopropylamino)-7-(1-methyl-1H-pyrazol-4-yl)cinnoline-3-carboxamide] | 8.05 | –
25 | CCNc1c(C(N)=O)nnc2cc(-c3ccc(S(C)(=O)=O)cc3)ccc12 [Compound 2-93, 4-(ethylamino)-7-(4-(methylsulfonyl)phenyl)cinnoline-3-carboxamide] | 7.34 | –
26 | CC(C)Nc1c(C(N)=O)nnc2ccc(-c3cn[nH]c3)cc12 [Compound 2-127, 4-(isopropylamino)-6-(1H-pyrazol-4-yl)cinnoline-3-carboxamide] | > 8.22 | –
27 | CC(C)Nc1c(C#N)nnc2cc(-c3ccc(S(C)(=O)=O)cc3)ccc12 [Compound 2-18, 4-(isopropylamino)-7-(4-(methylsulfonyl)phenyl)cinnoline-3-carbonitrile] | 6.21 | –
28 | CS(=O)(=O)c1ccc(-c2ccc3c(NC4CCOC4)c(C(N)=O)nnc3c2)cc1 (centres unmarked) [Compound 2-23, 7-(4-(methylsulfonyl)phenyl)-4-(tetrahydrofuran-3-ylamino)cinnoline-3-carboxamide] | 7.77 | –
29 | C[C@@H](Nc1c(C(N)=O)nnc2cc(-c3ccc4c(c3)NC(=O)C4)ccc12)C1CC1 [Compound 2-120, (R)-4-(1-cyclopropylethylamino)-7-(2-oxoindolin-6-yl)cinnoline-3-carboxamide] | 9.00 | –

Now from value to compound, other results behind:

Row | pIC50 [1] | Structure (SMILES) | pIC50
30 | 6.02 | CC(C)Nc1c(I)nnc2cc(-c3ccc(S(C)(=O)=O)cc3)ccc12 [Compound 3-68, 3-iodo-N-isopropyl-7-(4-(methylsulfonyl)phenyl)cinnolin-4-amine] | –
31 | < 6.00 | CNC(=O)c1nnc2cc(-c3ccc(S(C)(=O)=O)cc3)ccc2c1NC [Compound 12-229, N-methyl-4-(methylamino)-7-(4-(methylsulfonyl)phenyl)cinnoline-3-carboxamide] | –
32 | 5.80 | CC(C)Nc1c(Cl)nnc2cc(-c3ccc(S(C)(=O)=O)cc3)ccc12 [Compound 3-84, 3-chloro-N-isopropyl-7-(4-(methylsulfonyl)phenyl) cinnolin-4-amine] | –
33 | 7.51 | CC(C)Nc1c(C(N)=O)nnc2cc(-n3cccn3)ccc12 [Compound 4-80, 4-(isopropylamino)-7-(1H-pyrazol-1-yl)cinnoline-3-carboxamide] | –
34 | 6.25 | CC(C)Nc1c(C(N)=O)nnc2cc(Sc3ccccc3)ccc12 [Compound 4-76, 4-(isopropylamino)-7-(phenylthio)cinnoline-3-carboxamide] | –
35 | 6.03 | CC(C)Nc1c(C(N)=O)nnc2cc(CCO)ccc12 [Compound 7-198, 7-(2-hydroxyethyl)-4-(isopropylamino)cinnoline-3-carboxamide] | –
36 | 8.05 | COc1cc(-c2nccn2C)ccc1-c1ccc2c(N[C@H](C)C3CC3)c(C(N)=O)nnc2c1 [Compound 11-221, (R)-4-(1-cyclopropylethylamino)-7-(2-methoxy-4-(1-methyl-1H-imidazol-2-yl)phenyl)cinnoline-3-carboxamide] | –
37 | 7.89 | CC(C)Nc1c(C(N)=O)nnc2cc(-c3cscn3)ccc12 [Compound 5-55, 4-(isopropylamino)-7-(thiazol-4-yl)cinnoline-3-carboxamide] | –
38 | 9.00 | C[C@@H](Nc1c(C(N)=O)nnc2cc(-c3ccc(N4CCOC4=O)cc3)ccc12)C1CC1 [Compound 9-213, (R)-4-(1-cyclopropylethylamino)-7-(4-(2-oxooxazolidin-3-yl)phenyl)cinnoline-3-carboxamide] | –
39 | 7.60 | COc1cc(-c2nccnc2OC)ccc1-c1ccc2c(N[C@H](C)C3CC3)c(C(N)=O)nnc2c1 [Compound 11-220, (R)-4-(1-cyclopropylethylamino)-7-(2-methoxy-4-(3-methoxypyrazin-2-yl)phenyl)cinnoline-3-carboxamide] | –
40 | 4.89 | CC(C)Nc1c(-c2cccnc2)nnc2cc(-c3ccc(S(C)(=O)=O)cc3)ccc12 [Compound 3-72, N-isopropyl-7-(4-(methylsulfonyl)phenyl)-3-(pyridin-3-yl)cinnolin-4-amine] | –
41 | 7.27 | COc1ccc(N2CCOC2=O)cc1-c1ccc2c(N[C@H](C)C3CC3)c(C(N)=O)nnc2c1 [Compound 9-206, (R)-4-(1-cyclopropylethylamino)-7-(2-methoxy-5-(2-oxooxazolidin-3-yl)phenyl)cinnoline-3-carboxamide] | –
